Experimental data as given in patent US6034134A, “1-Amino-alkylcyclohexane NMDA receptor antagonists” (Merz + Co. GmbH & Co., priority 1998, dated 2000).
Where a name gives a salt, the structure may show the parent alone. Read-outs that look alike come from different tables or passages of the source.

Assays:
[1] = Maximal electroshock (MES)-induced convulsions in mice; assay type: in vivo; details: for ED50: Mus musculus, ip, 0.5 h, read-out: MES ED50; for MES ED50: 30 min
Method: (§1) NMR female mice (18-28 g) housed 5 per cage were used for the maximal electroshock (MES) and motor impairment tests. […] All compounds were dissolved in 0.9% saline.
(§2) The MES test was performed together with tests for myorelaxant action (traction reflex) and motor coordination (rotarod). For the traction reflex test mice were placed with their forepaws on a horizontal rod and were required to place all 4 paws on the wire within 10 seconds. To test ataxia (motor coordination) mice were placed on rotarod (5 rpm) and were required to remain on the rod for 1 minute. […] These tests were followed by MES (100 Hz, 0.5 second shock duration, 50 mA shock intensity, 0.9 ms impulse duration, Ugo Basile) applied through corneal electrodes. The presence of tonic convulsions was scored (tonic extension of hind paws with minimum angle to the body of 90°). The aim was to obtain ED50 s for all parameters scored (anticonvulsive activity and motor side effects) with use of the Litchfield Wilcoxon test for quantal dose responses. Division of the ED50 for side effects (ataxia or myorelaxation) by the ED50 for antagonism of electroshock convulsions was used as a therapeutic index (TI). […]

NMDA receptor [2] = assay: Patch clamp: NMDA-induced inward currents in cultured hippocampal neurones; assay type: cell-based, rat
Method: Hippocampi were obtained from rat embryos (E20 to E21) and were then transferred to calcium and magnesium free Hank's buffered salt solution (Gibco) on ice. Cells were mechanically dissociated in 0.05% DNAase/0.3% ovomucoid (Sigma) following an 8 minute pre-incubation with 0.66% trypsin/0.1% DNAase (Sigma). The dissociated cells were then centrifuged at 18 ×g for 10 minutes, re-suspended in minimum essential medium (Gibco) and plated at a density of 150,000 cells cm^-2 onto poly-L-lysine (Sigma)-precoated plastic petri dishes (Falcon). The cells were nourished with NaHCO3 /HEPES-buffered minimum essential medium supplemented with 5% fetal calf serum and 5% horse serum (Gibco) and incubated at 37° C. with 5% CO2 at 95% humidity. […] Thereafter the medium was exchanged partially twice weekly.
Patch clamp recordings were made from these neurones with polished glass electrodes (4-6 m.OMEGA.) in the whole cell mode at room temperature (20-22° C.) with the aid of an EPC-7 amplifier (List). Test substances were applied by switching channels of a custom-made fast superfusion system with a common outflow (10-20 ms exchange times). The contents of the intracellular solution were as follows (mM): CsCl (120), TEACl (20), EGTA (10), MgCl2 (1), CaCl2 -(0.2), glucose (10), ATP(2), cAMP (0.25); pH was adjusted to 7.3 with CsOH or HC1. The extracellular solutions had the following basic composition (mM): NaCl (140), KCl (3), CaCl2 (0.2), glucose (10), HEPES (10), sucrose (4.5), tetrodotoxin (TTX 3*10^-4). Glycine (1 μM) was present in all solutions: a concentration sufficient to cause around 80-85% activation of glycineB receptors. Only results from stable cells were accepted for inclusion in the final analysis, i.e., following recovery of responses to NMDA by at least 75% of their depression by the antagonists tested.
(§3) IC50 s in patch clamp, excitotoxicity, and binding studies were calculated according to the four parameter logistic equation using the Grafit computer program (Erithacus Software, England). Ki value for binding studies were then determined according to Cheng and Prusoff. Binding values presented are means±SEM of 3-5 determinations (each performed in duplicate). […] Pearson product moment correlation analysis (Sigma Stat, Jandel Scientific) was used to compare in vitro potencies and in vivo anticonvulsant activity.

[3] = cited from earlier work; for side effects in humans: human, in vivo
cortical neurones = assay: Excitotoxicity: glutamate toxicity in cultured cortical neurones (MTT); assay type: cell-based, rat; details: Rattus norvegicus, Cortical neurone
Method: Cortical neurones were obtained from cerebral cortices of 17/18 day old fetal rats (Wistar), in general following the dissociation procedure described by. After short trypsinization and gentle trituration with fire-polished Pasteur pipettes, the cell suspension was washed by centrifugation. Cells were suspended in serum-free Neurobasal medium with B27 supplement (GIBCO) before plating onto poly-L-lysine (Sigma; 0.2 mg/ml, 20 h, 4° C.) and laminin (Sigma; 2 μg/ml, 1 h, 37° C.)-coated 96-well plates (Falcon, Primaria) at a density of 5×10^4 cells/well. Cortical neurones were maintained at 37° C. in humidified 10% CO2 /90% air. […] The medium was changed first after 4 days in vitro and then every 4 days by replacing 2/3 of the medium with astrocyte-conditioned medium. Cortical neurones between day 12 and 14 in culture were used for the experiments.
New-born rat astrocytes were isolated non-enzymatically according to the method of [24]. Briefly, both hemispheres were dissected from 2-day-old rats, passed through an 80 μm gauze, and triturated with Pasteur pipettes. Cell suspension was made in Dulbecco's modified essential medium (DMEM, Gibco) supplemented with 10% fetal calf serum (FCS, Hyclone), 2 mM glutamine (Gibco) and 50 μg/ml gentamycin and transferred into untreated, plastic culture flasks (Corning; […]). Two days after plating the flasks were shaken for 10 minutes on a rotary platform (150 U/min) to remove microglial cells. The cultures were grown to confluency within 14 days, and the culture medium was changed twice weekly. Thereafter, the glial monolayers were extensively washed with serum-free Neurobasal medium (Gibco) to remove the serum. Flasks were then shaken several times to remove oligodendrocytes and neurones. To obtain conditioned medium from primary astrocytes, the cultures were incubated with fresh Neurobasal medium supplemented with B27 andglutamine. Every 2-3 days the conditioned medium was collected and replaced by fresh medium up to 4 times.
Exposure to EAA was performed in serum-free Neurobasal medium containing 100 μM glutamate and the drug to be tested. After 20 h of incubation, the cytotoxic effect was morphologically examined under a phase contrast microscope and biochemically quantified by measuring cell viability with the MTT test (Promega). This calorimetric assay measures the reduction of a tetrazolium component (MTT) into an insoluble formazan product by the mitochondria of living cells. After incubation of the cortical neurones with the dye solution for approximately 1-4 hours, a solubilization solution was added to lyse the cells and solubilize the colored product (incubation overnight at 37° C., 10% CO2, 90% RH). These samples were then read using an Elisa plate reader (Thermomax, MWG Biotech) at a wavelength of 570 nm. The amount of color produced was directly proportional to the number of viable cells.
as §3

[4] = Method: All animals were kept with water and food ad libitum under a 12 hour light-dark cycle (light on at 6 a.m.) and at a controlled temperature (20±0.5° C.). All e experiments were performed between 10 a.m. and 5 p.m. Tested agents were injected 30 min. i.p. before the induction of convulsions if not stated otherwise (see below). All compounds were dissolved in 0.9% saline.
NMDA receptor [5] = assay: [3H]-(+)-MK-801 binding to rat cortical membranes; details: read-out: MK-801 Ki; Table 9; Cheng-Prusoff with Kd for MK-801 of […]
Method: Male Sprague-Dawley rats (200-250 g) were decapitated and their brains were removed rapidly. The cortex was dissected and homogenized in 20 volumes of ice-cold 0.32 M sucrose using a glass-Teflon homogenizer. The homogenate was centrifuged at 1000 ×g for 10 minutes. The pellet was discarded and the supernatant centrifuged at 20,000 ×g for 20 minutes. The resulting pellet was re-suspended in 20 volumes of distilled water and centrifuged for 20 minutes at 8000 ×g. Then the supernatant and the buffy coat were centrifuged three times (48,000 ×g for 20 minutes) in the presence of 50 mM Tris-HCl, pH 8.0. All centrifugation steps were carried out at 4° C. After resuspension in 5 volumes of 50 mM Tris-HCl, pH 8.0 the membrane suspension was frozen rapidly at -80° C. On the day of assay the membranes were thawed and washed four times by resuspension in 50 mM Tris-HCl, pH 8.0 and centrifugation at 48,000 ×g for 20 minutes. The final pellet was suspended in assay buffer. The amount of protein in the final membrane preparation was determined according to the method of Lowry with some modifications. The final protein concentration used for our studies was between 250-500 μg/ml.
Membranes were re-suspended and incubated in 50 mM Tris-HCl, pH 8.0. […] Incubations were terminated using a Millipore filter system. The samples were rinsed three times with 2.5 ml ice cold assay buffer over glass fiber filters obtained from Schleicher & Schuell under a constant vacuum. Filtration was performed as rapidly as possible. Following separation and rinse, the filters were placed into scintillation liquid (5 ml; Ultima Gold) and radio activity retained on the filters was determined with a conventional liquid scintillation counter (Hewlett Packard, Liquid Scintillation Analyser).
as §3

[6] = Rotarod test (motor coordination, ataxia) in mice, therapeutic index versus MES; assay type: in vivo; details: mouse, in vivo, ip; ED50 for rotarod failure divided by ED50 for MES; read-out: TI Rot.
Method: All compounds were dissolved in 0.9% saline.
The MES test was performed together with tests for myorelaxant action (traction reflex) and motor coordination (rotarod). For the traction reflex test mice were placed with their forepaws on a horizontal rod and were required to place all 4 paws on the wire within 10 seconds. To test ataxia (motor coordination) mice were placed on rotarod (5 rpm) and were required to remain on the rod for 1 minute. […] These tests were followed by MES (100 Hz, 0.5 second shock duration, 50 mA shock intensity, 0.9 ms impulse duration, Ugo Basile) applied through corneal electrodes. The presence of tonic convulsions was scored (tonic extension of hind paws with minimum angle to the body of 90°). The aim was to obtain ED50 s for all parameters scored (anticonvulsive activity and motor side effects) with use of the Litchfield Wilcoxon test for quantal dose responses. Division of the ED50 for side effects (ataxia or myorelaxation) by the ED50 for antagonism of electroshock convulsions was used as a therapeutic index (TI).
as §3, with “Prusoff.” for “Prusoff. Binding values presented are means±SEM of 3-5 determinations (each performed in duplicate).”

[7] = Traction reflex test (myorelaxant action) in mice, therapeutic index versus MES; assay type: in vivo; details: ED50 for traction reflex impairment divided by ED50 for MES
Method: as §1, §2

[8] = Table 8, mice, i.p., 95% confidence limits in parentheses
[9] = read-out: Patch Clamp IC50; Table 7; NMDA 200 μM with glycine 1 μM at -70 mV
[10] = read-out: Patch Clamp IC50; Table 9; NMDA-induced currents
[11] = 20 h, read-out: Glut. Tox. IC50

SMILES	ED50 [1] [mg/kg]	MES ED50 [1, 8]	IC50 (NMDA receptor [2]; [9]) [µM]	IC50 (NMDA receptor [2]; [10]) [µM]	side effects in humans [3]	IC50 (cortical neurones; [11]) [µM]	IC50 (cortical neurones; read-out: Glut Tox IC50) [µM]	Min Lethality ([4]; i.p., minimal lethal dose) [mg/kg]	therapeutic efficacy in epilepsy ([3]; initial clinical experience)	Ki (NMDA receptor [5]) [µM]	selectivity ratio at 0.5 h [6]	selectivity ratio at 0.5 h ([7]; mouse, in vivo, ip, read-out: TI Tract)	ED50 [1, 8] [mg/kg]	IC50 (NMDA receptor [2]; Table 9; NMDA-induced currents; read-out: Patch Clamp IC50) [µM]	Min Lethality ([4]; mouse, in vivo, ip) [mg/kg]	TI Tract ([7]; 30 min)	IC50 (cortical neurones; Table 9, 100 μM glutamate, read-out: Glut Tox IC50) [µM]
NC12CC3CC(CC(C3)C1)C2 [Amantadine, reference compound]	184	184.0 (122-279) mg/kg	71	80.8	rarely produce side effects at the therapeutic doses	20.7	36.9	–	–	–	–	–	–	–	–	–	–
C[C@]12N[C@H](Cc3ccccc31)c1ccccc12 [MK-801, (+)-5-methyl-10,11-dihydro-5H-dibenzocyclohepten-5,10-imine maleate, reference compound]	0.16	0.16 (0.13-0.21) mg/kg	[…]	[…]	some psychotropic side effects were apparent at therapeutic doses	0.012	0.013	> 108	poor	–	–	–	–	–	–	–	–
CC1(C)CC(C)(C)CC(C)(N2CCCC2)C1.Cl [MRZ 2/705, N-(1,3,3,5,5-Pentamethylcyclohexyl) pyrrolidine hydrochloride]	–	–	–	–	–	–	–	> 50	–	7.14	5.4	3.9	–	–	–	–	–
CC1(C)CC(C)(C)CC(C)(CCN)C1 [Mrz 2/662]	–	–	–	–	–	–	–	–	–	3.44	–	–	30.5	1.5	> 40	1.0	0.53
